Reference: US20240261365A1, “POLYPEPTIDE ALBUMIN NANOPARTICLE, PREPARATION METHOD THEREFOR, AND APPLICATION THEREOF” (SUZHOU INSTITUTE OF NANO-TECH AND NANO-BIONICS (SINANO) , …, priority 2020, published 2024)
Read-outs that look alike come from different tables or passages of the source. Where a SMILES comes first, the peptide text is derived from it.

How the values were obtained:
[1] = concentration in blood after tail vein injection, ICP-MASS of iridium; conditions: mouse, in vivo, BALB/c mice, 100 μL of 500 μM, read-out: elimination half-life in the blood
Procedure: 36 BALB/c mice were equally divided into two groups and injected with 100 μL of Ir-cR8 and Ir-cR8-HSA nanoparticles (500 μM) through tail veins, separately. After 0.5 h, 2 h, 4 h, 8 h, 24 h and 48 h, eyes were removed for blood sampling and centrifuged at 10000 rpm for 10 min. […] of centrifuged serum was added with 1 mL of high chlorine acid and 3 mL of aqua regia, digested at 260° C. for 2 h, and added with water to 10 mL. The content of metal iridium in the blood at each time point was detected by ICP-MASS.

[2] = tested on: Human cervical cancer cells, Hela cells; assay type: cell-based
Procedure: Human cervical cancer cells, Hela cells, were dispersed with a DMEM medium containing 10% fetal bovine serum and spread to a 96-well plate, 8000 cells per well. After the cells were attached to the walls, Ir-cR5, Ir-cR8 and Ir-aR8 of 2, 4, 8, 16, 32, 64 and 128 μM and the corresponding oligoarginine polypeptides cR5, cR8 and aR8 were added and incubated for 24 h. The cell activity was detected by a thiazole blue method and the half-maximal inhibitory concentration (IC50) was calculated.

[3] = target: T1, human serum albumin (HSA) (human, UniProt P02768 25-609); test: dynamic light scattering of peptide-albumin assembly
T1 construct: Dissolved in water and used in solution
Procedure: The detection was performed at 25° C. using the dynamic light scattering apparatus, and only the peaks of the formed polypeptide albumin nanoparticles were calculated.

T1 sequence (P02768 25-609 limits assumed): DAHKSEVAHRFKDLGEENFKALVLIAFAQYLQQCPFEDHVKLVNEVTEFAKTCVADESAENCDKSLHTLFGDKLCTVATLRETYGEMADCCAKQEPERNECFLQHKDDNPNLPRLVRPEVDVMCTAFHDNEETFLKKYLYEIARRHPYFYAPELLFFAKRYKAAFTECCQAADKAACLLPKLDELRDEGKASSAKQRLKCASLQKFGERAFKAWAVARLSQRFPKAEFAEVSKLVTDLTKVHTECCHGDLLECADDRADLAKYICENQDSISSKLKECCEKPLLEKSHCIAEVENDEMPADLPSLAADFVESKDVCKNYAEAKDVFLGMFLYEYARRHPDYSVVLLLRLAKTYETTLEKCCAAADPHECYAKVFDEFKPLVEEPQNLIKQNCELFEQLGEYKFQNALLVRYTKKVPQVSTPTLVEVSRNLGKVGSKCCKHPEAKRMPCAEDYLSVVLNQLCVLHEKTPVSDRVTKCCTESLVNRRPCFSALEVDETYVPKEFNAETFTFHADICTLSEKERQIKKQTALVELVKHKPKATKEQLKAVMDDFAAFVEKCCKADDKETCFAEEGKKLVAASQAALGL

Row | Molecule | binding result [3] | further results
1 | CC(=O)N[C@@H](Cc1c[nH]cn1)C(=O)N[C@@H](CCCNC(=N)N)C(=O)N[C@@H](CCCNC(=N)N)C(=O)N[C@@H](CCCNC(=N)N)C(=O)N[C@@H](CCCNC(=N)N)C(=O)N[C@@H](CCCNC(=N)N)C(=O)N[C@@H](CCCNC(=N)N)C(=O)N[C@@H](CCCNC(=N)N)C(=O)N[C@@H](CCCNC(=N)N)C(=O)N[C@@H](Cc1c[nH]cn1)C(N)=O [Ir-cR8] (Ac-HRRRRRRRRH-NH2) |  | half-life [1]: < 30 min
2 | CC(=O)N[C@@H](Cc1c[nH]cn1)C(=O)N[C@@H](Cc1c[nH]cn1)C(=O)N[C@@H](CCCNC(=N)N)C(=O)N[C@@H](CCCNC(=N)N)C(=O)N[C@@H](CCCNC(=N)N)C(=O)N[C@@H](CCCNC(=N)N)C(=O)N[C@@H](CCCNC(=N)N)C(=O)N[C@@H](CCCNC(=N)N)C(=O)N[C@@H](CCCNC(=N)N)C(=O)N[C@@H](CCCNC(=N)N)C(N)=O [aR8] (Ac-HHRRRRRRRR-NH2; N-terminus and C-terminus assumed) |  | IC50 ([2]; 24 h): > 100 µM
3 | CC(=O)NC(Cc1c[nH]cn1)C(=O)NC(CCCNC(=N)N)C(=O)NC(CCCNC(=N)N)C(=O)NC(CCCNC(=N)N)C(=O)NC(CCCNC(=N)N)C(=O)NC(CCCNC(=N)N)C(=O)NC(Cc1c[nH]cn1)C(N)=O (centres unmarked) [cR5] (Ac-HRRRRRH-NH2; configuration not given here) |  | IC50 ([2]; 24 h): > 100 µM
4 | CC(=O)NC(Cc1c[nH]cn1)C(=O)NC(CCCNC(=N)N)C(=O)NC(CCCNC(=N)N)C(=O)NC(CCCNC(=N)N)C(=O)NC(CCCNC(=N)N)C(=O)NC(CCCNC(=N)N)C(=O)NC(CCCNC(=N)N)C(=O)NC(CCCNC(=N)N)C(=O)NC(CCCNC(=N)N)C(=O)NC(Cc1c[nH]cn1)C(N)=O (centres unmarked) [cR8] (Ac-HRRRRRRRRH-NH2; configuration not given here) |  | IC50 ([2]; Hela cells, incubated for 24 h, read-out: IC50): > 100 µM
5 | Ac-KKKKHHKKKK-NH2 (also: coordinated with iridium complex from [Ir(ppy)2(H2O)2]OTf (1:1), also called Formula VII) [iridium-coordinated oligopolypeptide (Ir-mK8)] | binds | 
6 | Ac-HKKKKKKKKH-NH2 (also: coordinated with iridium complex from [Ir(ppy)2(H2O)2]OTf (1:1), also called Formula VIII) [iridium-coordinated oligopolypeptide (Ir-cK8)] | binds | 
7 | Ac-FWLFLRRRRRRRR-NH2 [CH3CO-FWLFLRRRRRRRR (SEQ ID NO: 1)-CONH2 (FR)] | binds | 
8 | cholesterol-RRRRRRRR-NH2 [chol-RRRRRRRR (SEQ ID NO: 2)-CONH2 (CR)] | binds | 
